{"source": "patent US5840893A", "about": "“Compounds for treating infectious diseases” (priority 1996, dated 1998)", "origin": "cited, not measured here", "tested_on": "importation of HIV-1 into the nucleus", "details": "0.1M peptide in medium; aphidicolin-arrested CD4+ MT4 cells; cited from earlier work", "data": [{"substance": "SV40 T-antigen NLS: the peptide having the sequence of the SV40 T-antigen NLS (PKKKRKV)", "values": [{"measurement": "block of HIV-1 importation into the nucleus", "value": "blocked the importation of HIV-1 into the nucleus"}]}]}
